Reference: patent publication US20230173032A1, “Treatment of Hyperuricemia” (Frederiksberg Hospital, priority 2020, published 2023)

Assays:
[1] = Semaglutide case studies: treatment emergent adverse events; type: in vivo, human
Protocol: Two patients with chronic gout and no diabetes where treated with another type of GLP-1 analog: Semaglutide subcutaneous (sc) once weekly.
Person, gout since more than 3 years no diabetes. Received 0.25 mg weekly for 6 weeks and then 0.5 mg twice.
Person, gout since more than 4 years, no diabetes. Received 0.25 mg sc for 6 weeks and 0.5 mg sc for 4 weeks.

[2] = LOSE-IT trial (NCT02905864): serious adverse events and deaths; type: in vivo, human; settings: liraglutide 3 mg/day, 52 weeks
Protocol: Methods: In the LOSE-IT trial (NCT02905864), a randomised, double-blinded, placebo-controlled, parallel group, single-centre trial, 156 overweight and obese individuals with knee joint pain, were offered an initial 8-week intensive diet intervention (week −8 to 0) on Cambridge Weight Plan (800-1000 kcal/day) followed by a weight loss maintenance period in which participants were randomised to either liraglutide 3 mg/day or placebo for 52 weeks. Subjects with type 1 diabetes or type 2 diabetes with glucose-lowering drugs other than metformin were excluded from the study.

Structure (SMILES): CC[C@H](C)[C@H](NC(=O)[C@H](Cc1ccccc1)NC(=O)[C@H](CCC(=O)O)NC(=O)[C@H](CCCCNC(=O)COCCOCCNC(=O)COCCOCCNC(=O)CC[C@H](NC(=O)CCCCCCCCCCCCCCCCC(=O)O)C(=O)O)NC(=O)[C@H](C)NC(=O)[C@H](C)NC(=O)[C@H](CCC(N)=O)NC(=O)CNC(=O)[C@H](CCC(=O)O)NC(=O)[C@H](CC(C)C)NC(=O)[C@H](Cc1ccc(O)cc1)NC(=O)[C@H](CO)NC(=O)[C@H](CO)NC(=O)[C@@H](NC(=O)[C@H](CC(=O)O)NC(=O)[C@H](CO)NC(=O)[C@@H](NC(=O)[C@H](Cc1ccccc1)NC(=O)[C@@H](NC(=O)CNC(=O)[C@H](CCC(=O)O)NC(=O)C(C)(C)NC(=O)[C@@H](N)Cc1cnc[nH]1)[C@@H](C)O)[C@@H](C)O)C(C)C)C(=O)N[C@@H](C)C(=O)N[C@@H](Cc1c[nH]c2ccccc12)C(=O)N[C@@H](CC(C)C)C(=O)N[C@H](C(=O)N[C@@H](CCCNC(=N)N)C(=O)NCC(=O)N[C@@H](CCCNC(=N)N)C(=O)NCC(=O)O)C(C)C [Semaglutide]
- treatment emergent adverse events, Patient 1 ([1]; 8 weeks treatment, nausea during the first 2 weeks): No treatment emergent adverse events were experienced apart from slight nausea
- treatment emergent adverse events, Patient 2 ([1]; 10 weeks treatment): No treatment emergent adverse events were experienced apart from slight constipation

Structure (SMILES): CCCCCCCCCCCCCCCC(=O)N[C@@H](CCC(=O)NCCCC[C@H](NC(=O)[C@H](C)NC(=O)[C@H](C)NC(=O)[C@H](CCC(N)=O)NC(=O)CNC(=O)[C@H](CCC(=O)O)NC(=O)[C@H](CC(C)C)NC(=O)[C@H](Cc1ccc(O)cc1)NC(=O)[C@H](CO)NC(=O)[C@H](CO)NC(=O)[C@@H](NC(=O)[C@H](CC(=O)O)NC(=O)[C@H](CO)NC(=O)[C@@H](NC(=O)[C@H](Cc1ccccc1)NC(=O)[C@@H](NC(=O)CNC(=O)[C@H](CCC(=O)O)NC(=O)[C@H](C)NC(=O)[C@@H](N)Cc1cnc[nH]1)[C@@H](C)O)[C@@H](C)O)C(C)C)C(=O)N[C@@H](CCC(=O)O)C(=O)N[C@@H](Cc1ccccc1)C(=O)N[C@H](C(=O)N[C@@H](C)C(=O)N[C@@H](Cc1c[nH]c2ccccc12)C(=O)N[C@@H](CC(C)C)C(=O)N[C@H](C(=O)N[C@@H](CCCNC(=N)N)C(=O)NCC(=O)N[C@@H](CCCNC(=N)N)C(=O)NCC(=O)O)C(C)C)[C@@H](C)CC)C(=O)O [liraglutide, Arg34, Lys26-(N-epsilon-(gamma-L-glutamyl(N-alfa-hexadecanoyl)))-GLP-I(7-37)]
- deaths [2]: no deaths were observed
- participants who experienced serious adverse events [2]: Four
